Measurements from patent publication US8980820B2, “Fatty acid binding proteins as drug targets for endocannabinoids” (The Research Foundation for the State University of New York, priority 2010, dated 2015).
Entries after “also recorded” stand apart in the source; their conditions may differ.

Tests used:
[1] = stability of AEA during pre-equilibration in medium with BSA; type: physicochemical; conditions: 75 min in medium containing 0.15% BSA, data not shown
Method: Cells were plated at ˜90% confluency in 35 mm dishes, washed twice in DMEM and preincubated with the desired pharmacological compounds or vehicle controls (EtOH or DMSO). The cells were washed twice in DMEM and subsequently incubated for 5 min, 10 or 3 sec, with 750 μl [^14C]AEA (100 nM) that was pre-equilibrated for 75 min in medium containing 0.15% BSA. The equilibration step is necessary to avoid uneven distribution of the radiotracer and to ensure that it is stable in solution pre-bound to BSA. Less than 1% of AEA was hydrolyzed during this pre-equilibration step (data not shown). Following the incubation, 750 μl of ice-cold DMEM+0.15% BSA was added to the plates, the media separated from cells, which were then washed with DMEM+0.15% BSA to remove non-specifically bound AEA. The cells were scraped three times with 400 μl of ice-cold 2 mM EDTA in PBS and chloroform:methanol (1:1) added to the media and cells and the phases separated by centrifugation. The resulting aqueous (containing [^14C]ethanolamine) and organic (containing intact [^14C]AEA) phases were counted by liquid scintillation counting. [^14C]AEA uptake was determined by summing the production of [^14C]ethanolamine in the media and cells with intact cellular [^14C]AEA. Hydrolysis of [^14C]AEA was quantified by production of [^14C]ethanolamine in the media and cells. […]

N18TG2 cells = assay: [14C]AEA cellular uptake and hydrolysis in N18TG2 cells; type: cell-based, mouse
Method: (§1) COS-7 and N18TG2 cells were grown in DMEM supplemented with 10% fetal bovine serum, 100 U/ml penicillin/streptomycin, 2 mM L-glutamine, and 1 mM sodium pyruvate in a humidified incubator containing 95% air and 5% CO2. Transfections were carried out using Lipofectamine 2000 (Invitrogen, Carlsbad, Calif.) according to the manufacturer's instructions. For stable cell selection, forty eight hours after transfection cells were expanded in medium containing 750 μg/ml geneticin (Invitrogen, Carlsbad, Calif.). Four weeks later, stable cells were subjected to flow cytometry at the Flow Cytometry Core Facility in Stony Brook University and cells expressing identical levels of the indicated FAAH-eGFP fusion proteins were collected and expanded.
(§2) Cells were plated at ˜90% confluency in 35 mm dishes, washed twice in DMEM and preincubated with the desired pharmacological compounds or vehicle controls (EtOH or DMSO). The cells were washed twice in DMEM and subsequently incubated for 5 min, 10 or 3 sec, with 750 μl [^14C]AEA (100 nM) that was pre-equilibrated for 75 min in medium containing 0.15% BSA. The equilibration step is necessary to avoid uneven distribution of the radiotracer and to ensure that it is stable in solution pre-bound to BSA. Less than 1% of AEA was hydrolyzed during this pre-equilibration step (data not shown). Following the incubation, 750 μl of ice-cold DMEM+0.15% BSA was added to the plates, the media separated from cells, which were then washed with DMEM+0.15% BSA to remove non-specifically bound AEA. The cells were scraped three times with 400 μl of ice-cold 2 mM EDTA in PBS and chloroform:methanol (1:1) added to the media and cells and the phases separated by centrifugation. The resulting aqueous (containing [^14C]ethanolamine) and organic (containing intact [^14C]AEA) phases were counted by liquid scintillation counting. [^14C]AEA uptake was determined by summing the production of [^14C]ethanolamine in the media and cells with intact cellular [^14C]AEA. Hydrolysis of [^14C]AEA was quantified by production of [^14C]ethanolamine in the media and cells. Blanks consisting of either untransfected COS-7 cells or N18TG2 cells treated with 100 nM of the FAAH inhibitor URB597 were subtracted from all conditions.

COS7-FAAH-eGFP cells = assay: [14C]AEA cellular uptake and hydrolysis in COS7-FAAH-eGFP cells; type: cell-based, African green monkey
Method: as §1, §2

FAAH [2] = molecular target: T1, FAAH (Rattus norvegicus, UniProt P97612); assay: FAAH enzyme assay, COS-7-FAAH-eGFP homogenates; type: biochemical; conditions: 100 μM inhibitor, 100 μM [14C]AEA, p>0.05
T1 construct: N-terminal transmembrane helix (residues 1-29) in red, residues 30-579 in black, and eGFP in green; expressed in transfected cells
T1 sequence (P97612 1-579): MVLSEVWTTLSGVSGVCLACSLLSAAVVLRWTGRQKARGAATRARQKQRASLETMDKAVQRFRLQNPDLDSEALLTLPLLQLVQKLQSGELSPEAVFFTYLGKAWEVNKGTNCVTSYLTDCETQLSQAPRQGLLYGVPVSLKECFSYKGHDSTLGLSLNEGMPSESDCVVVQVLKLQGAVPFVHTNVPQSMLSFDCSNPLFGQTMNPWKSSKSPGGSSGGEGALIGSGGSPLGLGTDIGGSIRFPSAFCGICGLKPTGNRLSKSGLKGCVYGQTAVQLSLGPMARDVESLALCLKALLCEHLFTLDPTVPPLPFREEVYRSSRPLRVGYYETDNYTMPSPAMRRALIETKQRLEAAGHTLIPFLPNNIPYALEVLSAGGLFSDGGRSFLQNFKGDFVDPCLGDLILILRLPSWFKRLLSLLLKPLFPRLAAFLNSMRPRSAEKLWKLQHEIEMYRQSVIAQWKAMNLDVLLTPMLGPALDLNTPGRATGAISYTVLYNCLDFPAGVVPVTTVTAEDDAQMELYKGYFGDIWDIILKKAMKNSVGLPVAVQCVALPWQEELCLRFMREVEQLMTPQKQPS
Method: (§3) FAAH activity assays were performed as previously described. Briefly, cell homogenates were incubated with 100 μM AEA+0.1 μCi [^14C]AEA in Tris-HCl (pH 9) containing 0.1% BSA. For activity analysis, time and total protein were adjusted to maintain substrate conversion at approximately 10%. […] AEA (100 μM) for 1 or 30 min, respectively. Reactions were stopped by the addition of two volumes of 1:1 chloroform:methanol and the phases separated by centrifugation. The methanol phase (containing [^14C]ethanolamine) was sampled and quantified using a Beckman LS 6500 scintillation counter.

FAAH [3] = molecular target: T2, FAAH (Mus musculus, UniProt O08914); assay: FAAH enzyme assay, N18TG2 homogenates; type: biochemical; conditions: 100 μM inhibitor, 100 μM [14C]AEA, p>0.05
T2 construct: endogenous in cells; host or cells: N18TG2 mouse neuroblastoma cells, used as homogenate
T2 sequence (O08914 1-579): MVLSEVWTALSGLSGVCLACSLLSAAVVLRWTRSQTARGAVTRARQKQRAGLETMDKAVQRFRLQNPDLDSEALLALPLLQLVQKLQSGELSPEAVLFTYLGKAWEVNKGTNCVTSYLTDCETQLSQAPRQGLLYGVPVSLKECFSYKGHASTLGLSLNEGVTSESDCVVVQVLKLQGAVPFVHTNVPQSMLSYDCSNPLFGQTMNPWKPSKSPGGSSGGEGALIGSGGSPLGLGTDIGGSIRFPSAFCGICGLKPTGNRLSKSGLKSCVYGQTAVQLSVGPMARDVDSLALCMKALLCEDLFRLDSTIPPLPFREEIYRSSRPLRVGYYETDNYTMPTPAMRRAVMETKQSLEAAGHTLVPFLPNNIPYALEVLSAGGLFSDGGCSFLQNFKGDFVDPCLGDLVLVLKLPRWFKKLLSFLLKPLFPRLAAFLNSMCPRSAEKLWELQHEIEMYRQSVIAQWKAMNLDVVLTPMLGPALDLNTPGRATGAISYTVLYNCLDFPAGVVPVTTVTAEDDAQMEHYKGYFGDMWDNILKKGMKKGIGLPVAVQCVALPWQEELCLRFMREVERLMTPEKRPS
Method: as §3

[4] = 20-100 μM BMS309403, dose-dependent
[5] = 100 μM, 5 min, vs vehicle, p<0.05
[6] = oleic acid 100 μM, 5 min incubation, [14C]AEA 100 nM

Row | SMILES | AEA hydrolyzed during pre-equilibration step [1] | intracellular hydrolysis of [14C]AEA following uptake (N18TG2 cells; 3 sec, 20-100 μM) | levels of cell associated [14C]AEA (N18TG2 cells; 3 sec, data not shown) | maximal inhibition of [14C]AEA uptake (N18TG2 cells; [4]) | [14C]AEA hydrolysis (metabolism), effect in words (N18TG2 cells; 20-100 μM, vs vehicle) | [14C]AEA uptake, effect in words (N18TG2 cells; 20-100 μM, vs vehicle) | intracellular hydrolysis of [14C]AEA following uptake (COS7-FAAH-eGFP cells; 3 sec, 20-100 μM) | levels of cell associated [14C]AEA (COS7-FAAH-eGFP cells; 3 sec, data not shown) | maximal inhibition of [14C]AEA uptake (COS7-FAAH-eGFP cells; [4]) | [14C]AEA hydrolysis (metabolism), effect in words (COS7-FAAH-eGFP cells; 20-100 μM, vs vehicle) | [14C]AEA uptake, effect in words (COS7-FAAH-eGFP cells; 20-100 μM, vs vehicle) | [14C]AEA hydrolysis (FAAH activity) by homogenates (FAAH [2]) | [14C]AEA hydrolysis (FAAH activity) by homogenates (FAAH [3]) | [14C]AEA hydrolysis, effect in words (N18TG2 cells; [5]) | [14C]AEA uptake, effect in words (N18TG2 cells; [5]) | reduction of [14C]AEA uptake (N18TG2 cells; [6]) | [14C]AEA hydrolysis, effect in words (COS7-FAAH-eGFP cells; [5]) | [14C]AEA uptake, effect in words (COS7-FAAH-eGFP cells; [5]) | reduction of [14C]AEA uptake (COS7-FAAH-eGFP cells; [6])
1 | CCCCC/C=C\C/C=C\C/C=C\C/C=C\CCCC(=O)NCCO [AEA, arachidonoyl ethanolamide] | Less than 1% | – | – | – | – | – | – | – | – | – | – | – | – | – | – | – | – | – | –
2 | CCc1c(-c2ccccc2)c(-c2ccccc2)nn1-c1ccccc1-c1cccc(OCC(=O)O)c1 [BMS309403] | – | reduced | without affecting | 57% | proportionally and significantly reduced; also recorded: significantly decreased | significantly decreased | reduced | without affecting | 48% | proportionally and significantly reduced; also recorded: significantly decreased | significantly decreased | did not inhibit; also recorded: not inhibited | did not inhibit; also recorded: not inhibited | – | – | – | – | – | –
3 | CCCCCCCC/C=C\CCCCCCCC(=O)O [oleic acid] | – | – | – | – | – | – | – | – | – | – | – | did not inhibit; also recorded: not inhibited | did not inhibit; also recorded: not inhibited | significantly reduced | significantly reduced | 53% | significantly reduced | significantly reduced | 25%
